Blank lines part the entries; values can stand above or below the compound they belong to.
Target: T1, β-glucanase
T1 construct: gene eglA; native secreted enzyme purified from culture supernatant (ammonium sulfate, DEAE-Cellulose, Sephadex G200); 56 kDa on SDS-PAGE; gene not identified; assayed as CMC hydrolysis
Test: residual CMC hydrolysis, DNS reducing sugar
Format: biochemical, Aspergillus niger
Conditions: free enzyme, standard assay 0.5% CMC stock, citrate pH 5.0, 40 °C

IC50 (covalent, tryptophanyl reagent): 6.44 mM
SMILES: O=C1CCC(=O)N1Br [N-bromosuccinimide]

SMILES: CC(O)C(C)O (stereo not shown) [2.3-butanediol]
IC50 (arginyl reagent, printed as 2,3-butanediol, probably 2,3-butanedione meant): 4.65 mM

IC50 (covalent, tyrosyl reagent): 8.87 mM
SMILES: CC(=O)n1ccnc1 [N-Acetyl imidazole]

SMILES: [Hg+][c]1ccccc1 [phenylmercuric acetate]
IC50 (covalent, sulfhydryl reagent): 5.47 mM

— publication PMC8545931, “Production and immobilization of β-glucanase from Aspergillus niger with its applications in bioethanol production and biocontrol of phytopathogenic fungi” (Scientific Reports, 2021)
